Measured values published in patent US8877715B2, “Cytotoxic conjugates having neuropeptide Y receptor binding compound” (priority 2009, dated 2014).

Legend:
NPY-Y2 receptor = target: T1, NPY-Y2 receptor (Homo sapiens, UniProt P49146); assay: In vitro radioligand NPY-Y2 receptor binding assay ([125I]PYY, SK-N-BE2 cell membranes); details: [125I]PYY displacement
T1 construct: the appropriate cells (SK-N-MC for NPY-Y1; host or cells: SK-N-BE2 human neuroblastoma cells (membrane homogenate)
T1 sequence (P49146 1-381): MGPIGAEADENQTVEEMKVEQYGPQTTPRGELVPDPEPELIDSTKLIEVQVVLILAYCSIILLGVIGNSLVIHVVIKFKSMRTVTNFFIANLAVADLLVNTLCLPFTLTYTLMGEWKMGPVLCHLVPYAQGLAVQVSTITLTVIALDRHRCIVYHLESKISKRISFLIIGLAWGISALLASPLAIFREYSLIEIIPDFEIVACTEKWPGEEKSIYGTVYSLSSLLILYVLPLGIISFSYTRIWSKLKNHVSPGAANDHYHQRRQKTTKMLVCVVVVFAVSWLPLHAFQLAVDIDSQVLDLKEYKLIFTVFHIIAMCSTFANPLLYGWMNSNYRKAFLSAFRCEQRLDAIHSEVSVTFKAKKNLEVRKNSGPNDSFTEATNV
Experimental: In Vitro Radioligand NPY-Y1 and NPY-Y2 Receptor Binding Assays
Human neuroblastoma cell lines, SK-N-MC and SK-N-BE2 (American Type Culture Collection, Rockville, Md., USA), expressing the NPY-Y1 and NPY-Y2 receptors, respectfully, were cultured in EMEM containing 10% fetal calf serum and 5% chicken embryo extract, maintained at 37° C. in a humidified atmosphere of and 95% air and 5% CO2.
For the in vitro NPY-Y1 and NPY-Y2 radioligand binding assays, the appropriate cells (SK-N-MC for NPY-Y1; SK-N-BE2 for NPY-Y2) were harvested and then homogenized in 20 ml of ice-cold 50 mM Tris-HCl with a Brinkman Polytron (Westbury, N.Y., USA) (setting 6, 15 sec). The homogenates were washed twice by centrifugation (39,000 g/10 min), and the final pellets were resuspended in 50 mM Tris-HCl, containing 2.5 mM MgCl2, 0.1 mg/ml bacitracin (Sigma Chemical, St. Louis, Mo., USA), and 0.1% BSA.

[1] = system: Human MCF-7 breast carcinoma cells; assay: In vivo growth assay, MCF-7 xenograft (Study A and Study B); design: species or system nude mice; details: Study B; for TGI: Day 15
Experimental: Once-weekly treatments were administered for three weeks by tail vein injection except in cases where poor drug solubility or tail necrosis necessitated intraperitoneal injections. […] Example 93 was evaluated in Study B at 55.45 mg/kg, 110.9 mg/kg and 221.8 mg/kg. Antitumor activity was assessed by tumor growth delay (“TGD”) defined as the difference in median time to endpoint tumor size in a treatment group compared to the control group, and by tumor growth inhibition (“TGI”) defined as the difference between median tumor volumes of the treatment and control groups on a study day providing a balance between measurable group responses and large group sizes. Toxicity was evaluated by body weight measurements and clinical observations.
Female nude mice (nu/nu, Harlan) were 10-11 weeks old and had body weight ranges of
The animals were fed ad libitum water (reverse osmosis, 1 ppm Cl) and NIH 31 Modified and Irradiated Lab Diet® consisting of 18.0% crude protein, 5.0% crude fat, and 5.0% crude fiber. The mice were housed on irradiated ALPHA-Dri® Bed-o′ Cobs® Laboratory Animal Bedding in static microisolators on a 12-hour light cycle at 21-22° C.
Human MCF-7 breast carcinoma cells were maintained in RPMI 1640 medium containing 100 units/mL penicillin G sodium, 100 μg/mL streptomycin sulfate, and 25 μg/mL gentamicin. The medium was supplemented with 10% heat-inactivated fetal bovine serum and 2 mM glutamine. Additional buffering was provided with 10 mM HEPES and 0.075% sodium bicarbonate. The tumor cells were cultured in tissue culture flasks in a humidified incubator at 37° C. in an atmosphere of 95% air and 5% CO2.
Three to seven days prior to cell injection, a pellet containing 17-β-estradiol (0.36 mg, 60-day release, Innovative Research of America) was implanted subcutaneously between the scapulae of each mouse.
The MCF-7 tumor cells used for implantation were harvested during log phase growth and resuspended in phosphate-buffered saline at 5×10^7 cells/mL. […] Tumors were monitored twice weekly and then daily as their volumes approached 80-120 mm^3. […] Thus, a separate study (“Study B”) was set up comprising six groups (n=10) of animals. In this study, 17 days elapsed between cell implantation and group assignment. […] Tumor size, in mm^3, was calculated from:
[formula] where w=width and l=length in mm of the MCF-7 tumor. Tumor weight may be estimated with the assumption that 1 mg is equivalent to 1 mm^3 of tumor volume.
Example 93 dosing solutions were prepared fresh in 0.1N acetic acid for each day of treatment.
Camptothecin (Lot No. 034K3648, Sigma) stock solutions were made from 60% DMA and 40% Tween 80 and stored at room temperature during the study. Dosing solutions were prepared fresh on each day of dosing by diluting the stocks 1:20 in saline.
The treatment plans are summarized in Table 3A for Study A and Table 3B for Study B.
All treatments and vehicles were given once-weekly for three doses (“qwk×3”). Group 1 mice received no gavage and no injections, and served as a control for tumor progression and estrogen toxicity. Group 2 animals received vehicle.
Each treatment dose was administered in a volume of 0.2 mL per 20 g of body weight, and was scaled to the body weight of the animal.
Median tumor growth curves of FIGS. 1-3 show median tumor volumes as a function of time. When an animal exited the study due to tumor size, the final tumor volume recorded for the animal was included with the data used to calculate the group median tumor volume at subsequent time points. Curves were truncated after 50% of animals in a group had exited the study.

[Camptothecin-rvD/L-Asp-Suc-Tyr^1, Nle^17, A6c^31, 4Hyp^34]hNPY(1-36)-NH2 [93/93A]
Ki (NPY-Y2 receptor): > 1000 nM

[camptothecin-rvD-Asp-Suc-Tyr^1, Nle^17, A6c^31, 4Hyp^34]hNPY(1-36)-NH2 [Example 93]
tumor growth delay (TGD) [1]: TGD analysis did not distinguish responses to Example 93 from tumor growth in the untreated control | TGI ([1]; 110.9 mg/kg): 71% | TGI ([1]; 221.8 mg/kg): 77% | mean tumor volume ([1]; G 4: 55.45 mg/kg qwk x 3, D 1): 112.9 mm^3 | mean tumor volume ([1]; G 4: 55.45 mg/kg qwk x 3, D 4): 206.3 mm^3 | mean tumor volume ([1]; G 4: 55.45 mg/kg qwk x 3, D 8): 227.6 mm^3 | mean tumor volume ([1]; G 4: 55.45 mg/kg qwk x 3, D 12): 236.1 mm^3 | mean tumor volume ([1]; G 4: 55.45 mg/kg qwk x 3, D 15): 323.1 mm^3 | mean tumor volume ([1]; G 4: 55.45 mg/kg qwk x 3, D 19): 348.4 mm^3 | mean tumor volume ([1]; G 4: 55.45 mg/kg qwk x 3, D 22): 343.3 mm^3 | mean tumor volume ([1]; G 4: 55.45 mg/kg qwk x 3, D 26): 366.9 mm^3 | mean tumor volume ([1]; G 4: 55.45 mg/kg qwk x 3, D 29): 426.8 mm^3 | mean tumor volume ([1]; G 4: 55.45 mg/kg qwk x 3, D 33): 524.5 mm^3 | mean tumor volume ([1]; G 4: 55.45 mg/kg qwk x 3, D 36): 621.9 mm^3 | mean tumor volume ([1]; G 4: 55.45 mg/kg qwk x 3, D 40): 452.8 mm^3 | mean tumor volume ([1]; G 5: 110.9 mg/kg qwk x 3, D 1): 112.8 mm^3 | mean tumor volume ([1]; G 5: 110.9 mg/kg qwk x 3, D 4): 217.3 mm^3 | mean tumor volume ([1]; G 5: 110.9 mg/kg qwk x 3, D 8): 213 mm^3 | mean tumor volume ([1]; G 5: 110.9 mg/kg qwk x 3, D 12): 186.6 mm^3 | mean tumor volume ([1]; G 5: 110.9 mg/kg qwk x 3, D 15): 242.5 mm^3 | mean tumor volume ([1]; G 5: 110.9 mg/kg qwk x 3, D 19): 212.6 mm^3 | mean tumor volume ([1]; G 5: 110.9 mg/kg qwk x 3, D 22): 207.7 mm^3 | mean tumor volume ([1]; G 5: 110.9 mg/kg qwk x 3, D 26): 225.5 mm^3 | mean tumor volume ([1]; G 5: 110.9 mg/kg qwk x 3, D 29): 308.7 mm^3 | mean tumor volume ([1]; G 5: 110.9 mg/kg qwk x 3, D 33): 112.3 mm^3 | mean tumor volume ([1]; G 5: 110.9 mg/kg qwk x 3, D 36): 141.1 mm^3 | mean tumor volume ([1]; G 5: 110.9 mg/kg qwk x 3, D 40): 229.5 mm^3 | mean tumor volume ([1]; G 6: 221.8 mg/kg qwk x 3, D 1): 112.7 mm^3 | mean tumor volume ([1]; G 6: 221.8 mg/kg qwk x 3, D 4): 197.9 mm^3 | mean tumor volume ([1]; G 6: 221.8 mg/kg qwk x 3, D 8): 170.3 mm^3 | mean tumor volume ([1]; G 6: 221.8 mg/kg qwk x 3, D 12): 108 mm^3 | mean tumor volume ([1]; G 6: 221.8 mg/kg qwk x 3, D 15): 122.8 mm^3 | mean tumor volume ([1]; G 6: 221.8 mg/kg qwk x 3, D 19): 66.6 mm^3 | mean tumor volume ([1]; G 6: 221.8 mg/kg qwk x 3, D 22): 66 mm^3 | mean tumor volume ([1]; G 6: 221.8 mg/kg qwk x 3, D 26): 80.4 mm^3 | mean tumor volume ([1]; G 6: 221.8 mg/kg qwk x 3, D 29): 90.1 mm^3 | mean tumor volume ([1]; G 6: 221.8 mg/kg qwk x 3, D 33): 109.6 mm^3 | mean tumor volume ([1]; G 6: 221.8 mg/kg qwk x 3, D 36): 123.8 mm^3 | mean tumor volume ([1]; G 6: 221.8 mg/kg qwk x 3, D 40): 233.2 mm^3 | tumor growth curves ([1]; all dose levels): clear reduction in tumor growth at all dose levels

[camptothecin-rvD/Lasp-Suc-Tyr^1, Nle^17, 4Hyp^34]hNPY(1-36)-NH2 [Example 92/92A]
Ki (NPY-Y2 receptor): > 1000 nM
